Tested on: human airway epithelial cells (HAE)
Assay: LDH release / integrity of HAE
Type: cell-based
Method: GFP images were acquired using a Keyence All-in-one Fluorescence Microscope BZ-X series (Osaka, Japan). 0.33 cm^2 Transwells were imaged at 2× magnification. GFP expression was quantified by flow cytometry as previously reported (36). Briefly, cells were stained with a fixable LIVE/DEAD stain (Thermo Fisher Scientific, Waltham, MA, USA), lifted in Accutase at 37° C. for 30 minutes, and run through an Attune NxT Flow Cytometer (Thermo Fisher Scientific, Waltham, MA, USA). Cells were treated with the Foxp3/Transcription Factor Staining Buffer Set (Thermo Fisher Scientific, Waltham, MA, USA) according to manufacturer's recommendations and stained for 1 hour at 37° C. with the following antibodies: NGFR (345110; 1:600, BioLegend, San Diego, CA, USA), α-tubulin (NB100-69AF405, 1:300, Novus, Centennial, CO, USA) and CD66c (12-0667-42, 1:600, Invitrogen, Waltham, MA). Expression was gated on live cells. Immunofluorescence staining of pig tissue sections was performed using acetylated α-tubulin (D20G3, 1:200, Cell Signaling Technology, Danvers, MA) or cytokeratin 5 (CK5) (Polyl9055, 1:500, San Diego, CA). Primary antibodies were detected using a goat anti-rabbit Alexa 546 secondary anti-body (A-11035, 1:600, Thermo Fisher Scientific, Waltham, MA).
LDH release was quantified according to the manufacturer's recommendations (LDH-Glo Cytotoxicity Assay, Promega, Madison, WI). Briefly, basolateral media from each condition was collected in a 96 well plate. The LDH detection reagents were mixed in a 1:1 ratio and applied to each well and incubated for 30 minutes. Luminescence was recorded using a SpectraMax i3x plate reader.

## [Cl-].[Na+] [NaCl, sodium chloride]
5% NaCl formulation
  effects on HAE integrity in vitro: negative effects on HAE integrity
Highest concentrations of NaCl (5-7%)
  LDH release: increased LDH release
In vitro HAE
  NaCl doses with ultimate toxicity: > 6%
